# What was measured:
# Type in all cases: functional
# [1] = Cytotoxicity against Homo sapiens (human) NCI-ADR-RES cells after 48 hr by sulforhodamine B assay
# A549 = test: Cytotoxicity against Homo sapiens (human) A549 cells after 48 hr by sulforhodamine B assay; conditions: A549, 48 h
# UACC-257 = test: Cytotoxicity against Homo sapiens (human) UACC257 cells after 48 hr by sulforhodamine B assay; conditions: UACC-257, 48 h
# SN12C = test: Cytotoxicity against Homo sapiens (human) SN12C cells after 48 hr by sulforhodamine B assay
# SF-268 = test: Cytotoxicity against Homo sapiens (human) SF268 cells assessed as cell growth at 10^-4 M after 48 hr by […] assay; conditions: SF-268, 48 h, read-out: Activity
# UACC-62 = test: Cytotoxicity against Homo sapiens (human) UACC62 cells after 48 hr by sulforhodamine B assay; conditions: UACC-62, 48 h
# HCT-116 = test: Cytotoxicity against Homo sapiens (human) HCT116 cells after 48 hr by sulforhodamine B assay; conditions: HCT-116, 48 h
# EKVX = test: Cytotoxicity against Homo sapiens (human) EKVX cells after 48 hr by sulforhodamine B assay
# K562 = test: Cytotoxicity against Homo sapiens (human) K562 cells after 48 hr by sulforhodamine B assay; conditions: K562, 48 h
# MDA-MB-231 = test: Cytotoxicity against Homo sapiens (human) MDA-MB-231 cells after 48 hr by sulforhodamine B assay; conditions: MDA-MB-231, 48 h
# CAKI-1 = test: Cytotoxicity against Homo sapiens (human) Caki1 cells after 48 hr by sulforhodamine B assay; conditions: CAKI-1, 48 h
# HOP-62 = test: Cytotoxicity against Homo sapiens (human) HOP62 cells after 48 hr by sulforhodamine B assay; conditions: HOP-62, 48 h
# RXF 393 = test: Cytotoxicity against Homo sapiens (human) RXF393 cells after 48 hr by sulforhodamine B assay; conditions: RXF 393, 48 h
# COLO 205 = test: Cytotoxicity against Homo sapiens (human) COLO205 cells after 48 hr by sulforhodamine B assay; conditions: COLO 205, 48 h
# NCI-H322M = test: Cytotoxicity against Homo sapiens (human) NCI-H322M cells after 48 hr by sulforhodamine B assay
# SK-MEL-5 = test: Cytotoxicity against Homo sapiens (human) SK-MEL-5 cells after 48 hr by sulforhodamine B assay; conditions: SK-MEL-5, 48 h
# SF-539 = test: Cytotoxicity against Homo sapiens (human) SF539 cells after 48 hr by sulforhodamine B assay; conditions: SF-539, 48 h
# SK-MEL-2 = test: Cytotoxicity against Homo sapiens (human) SK-MEL-2 cells after 48 hr by sulforhodamine B assay; conditions: SK-MEL-2, 48 h
# U-251 = test: Cytotoxicity against Homo sapiens (human) U251 cells after 48 hr by sulforhodamine B assay; conditions: U-251, 48 h
# MOLT-4 = test: Cytotoxicity against Homo sapiens (human) MOLT4 cells after 48 hr by sulforhodamine B assay; conditions: MOLT-4, 48 h
# IGROV-1 = test: Cytotoxicity against Homo sapiens (human) IGROV1 cells after 48 hr by sulforhodamine B assay; conditions: IGROV-1, 48 h
# NCI-H226 = test: Cytotoxicity against Homo sapiens (human) NCI-H226 cells after 48 hr by sulforhodamine B assay; conditions: NCI-H226, 48 h
# KM12 = test: Cytotoxicity against Homo sapiens (human) KM12 cells after 48 hr by sulforhodamine B assay; conditions: KM12, 48 h
# OVCAR-3 = test: Cytotoxicity against Homo sapiens (human) OVCAR3 cells after 48 hr by sulforhodamine B assay; conditions: OVCAR-3, 48 h
# PC-3 = test: Cytotoxicity against Homo sapiens (human) PC3 cells after 48 hr by sulforhodamine B assay; conditions: PC-3, 48 h
# NCI-H522 = test: Cytotoxicity against Homo sapiens (human) NCI-H522 cells after 48 hr by sulforhodamine B assay; conditions: NCI-H522, 48 h
# MDA-MB-435 = test: Cytotoxicity against Homo sapiens (human) MDA-MB-435 cells after 48 hr by sulforhodamine B assay; conditions: MDA-MB-435, 48 h
# NCI-H23 = test: Cytotoxicity against Homo sapiens (human) NCI-H23 cells after 48 hr by sulforhodamine B assay; conditions: NCI-H23, 48 h
# OVCAR-4 = test: Cytotoxicity against Homo sapiens (human) OVCAR4 cells after 48 hr by sulforhodamine B assay; conditions: OVCAR-4, 48 h
# HCC 2998 = test: Cytotoxicity against Homo sapiens (human) HCC2998 cells after 48 hr by sulforhodamine B assay; conditions: HCC 2998, 48 h
# [2] = read-out: LC50 (the source's name)
compound,measurement,setting,value
ClCc1ccc(Cn2cnc3c(Cl)ncnc32)cc1,GI50,[1],1.51 µM
same,LC50 (concentration killing 50% of cells),[1],38.9 µM
same,TGI,[1],5.49 µM
same,GI50,A549,1.38 µM
same,TGI,A549,18.2 µM
same,CC50,A549; [2],51.3 µM
same,GI50,UACC-257,7.41 µM
same,LC50 (concentration killing 50% of cells),UACC-257,97.7 µM
same,TGI,UACC-257,28.8 µM
same,GI50,SN12C,1.02 µM
same,LC50 (50% lethal concentration),SN12C,5.37 µM
same,TGI,SN12C,2.34 µM
same,growth at 100 µM,SF-268,26%
same,GI50,UACC-62,1.23 µM
same,LC50 (concentration causing 50% net cell kill),UACC-62,9.45 µM
same,TGI,UACC-62,33.9 µM
same,GI50,HCT-116,1.12 µM
same,TGI,HCT-116,2.45 µM
same,CC50,HCT-116; [2],25.1 µM
same,GI50,EKVX,2.45 µM
same,TGI,EKVX,6.92 µM
same,CC50,EKVX; [2],38.9 µM
same,GI50,K562,2.91 µM
same,TGI,K562,> 100 µM
same,CC50,K562; [2],> 100 µM
same,GI50,MDA-MB-231,1.77 µM
same,LC50,MDA-MB-231,8.7 µM
same,TGI,MDA-MB-231,3.89 µM
same,GI50,CAKI-1,0.26 µM
same,TGI,CAKI-1,0.64 µM
same,CC50,CAKI-1; [2],2.39 µM
same,GI50,HOP-62,1.94 µM
same,TGI,HOP-62,6.76 µM
same,CC50,HOP-62; [2],32.4 µM
same,GI50,RXF 393,2.3 µM
same,TGI,RXF 393,5.49 µM
same,CC50,RXF 393; [2],> 100 µM
same,GI50,COLO 205,2.23 µM
same,TGI,COLO 205,> 100 µM
same,CC50,COLO 205; [2],> 100 µM
same,GI50,NCI-H322M,1.82 µM
same,TGI,NCI-H322M,4.16 µM
same,CC50,NCI-H322M; [2],9.33 µM
same,GI50,SK-MEL-5,3.23 µM
same,LC50,SK-MEL-5,74.1 µM
same,TGI,SK-MEL-5,20.9 µM
same,LC50 (concentration killing 50% of cells),SF-539,70.8 µM
same,GI50,SK-MEL-2,4.36 µM
same,LC50 (concentration killing 50% of cells),SK-MEL-2,> 100 µM
same,TGI,SK-MEL-2,> 100 µM
same,GI50,U-251,1.25 µM
same,LC50 (concentration killing 50% of cells),U-251,7.41 µM
same,TGI,U-251,3.01 µM
same,GI50,MOLT-4,4.78 µM
same,TGI,MOLT-4,> 100 µM
same,CC50,MOLT-4; [2],> 100 µM
same,GI50,IGROV-1,3.16 µM
same,LC50,IGROV-1,> 100 µM
same,TGI,IGROV-1,25.1 µM
same,GI50,NCI-H226,1.58 µM
same,TGI,NCI-H226,7.41 µM
same,CC50,NCI-H226; [2],49 µM
same,GI50,KM12,2.14 µM
same,TGI,KM12,10.2 µM
same,CC50,KM12; [2],95.5 µM
same,GI50,OVCAR-3,1.38 µM
same,LC50,OVCAR-3,8.91 µM
same,TGI,OVCAR-3,3.54 µM
same,GI50,PC-3,4.78 µM
same,LC50 (concentration causing 50% cell kill),PC-3,> 100 µM
same,TGI,PC-3,72.4 µM
same,GI50,NCI-H522,3.54 µM
same,TGI,NCI-H522,> 100 µM
same,CC50,NCI-H522; [2],> 100 µM
same,GI50,MDA-MB-435,1.62 µM
same,LC50,MDA-MB-435,15.8 µM
same,TGI,MDA-MB-435,4.36 µM
same,GI50,NCI-H23,0.66 µM
same,TGI,NCI-H23,2.45 µM
same,CC50,NCI-H23; [2],7.76 µM
same,GI50,OVCAR-4,2.45 µM
same,LC50 (concentration killing 50% of cells),OVCAR-4,> 100 µM
same,TGI,OVCAR-4,6.6 µM
same,GI50,HCC 2998,0.66 µM
same,TGI,HCC 2998,2.04 µM
same,CC50,HCC 2998; [2],5.12 µM
